Key:
[1] = biological target: recombinant RORγ Ligand Binding Domain (LBD) protein (Homo sapiens (Human), UniProt P51449); assay: Radio-Ligand RORγ Binding Assay (Assay 1); conditions: competition with 25-hydroxy [26,27-3H]-cholesterol, SPA
Procedure: Radio-Ligand RORγ Binding Assay (Assay 1)
Compounds described herein were tested for ability to bind to RORγ in a cell-free competition assay with commercially available radio-ligand (RL), 25-hydroxy [26,27-^3H]-cholesterol (PerkinElmer, Cat. # NET674250UC), for a ligand binding site on a recombinant RORγ Ligand Binding Domain (LBD) protein expressed as a 6×His-Glutathione-S-Transferase (GST) fusion. […] The plate was shaken at 700 rpm for 20 min and incubated for 10 min at rt, after which 40 μL of poly-Lys YSi SPA beads (PerkinElmer, Cat. # RPNQ0010) were added to achieve 50 μg of the beads per well. The plate was incubated on an orbital shaker for 20 min and then for 10 min without agitation at rt. SPA signal for tritium beta radiation was registered on PerkinElmer Microbeta plate reader. […] The percent inhibition vs. concentration data were fit into a four-parameter model, and IC50 values were calculated from the fit as the concentrations corresponding to the inflection points on the dose-response curves.

[2] = biological target: full-length RORγt in Jurkat cells (Homo sapiens (Human), UniProt P51449); assay: RORγt 5×RORE Assay in Jurkat Cells (Assay 2); type: cell-based; conditions: RORγt 5×RORE Nanoluc luciferase reporter
Sequence of full-length RORγt in Jurkat cells (P51449 other isoform, or with tags, fused parts or gaps): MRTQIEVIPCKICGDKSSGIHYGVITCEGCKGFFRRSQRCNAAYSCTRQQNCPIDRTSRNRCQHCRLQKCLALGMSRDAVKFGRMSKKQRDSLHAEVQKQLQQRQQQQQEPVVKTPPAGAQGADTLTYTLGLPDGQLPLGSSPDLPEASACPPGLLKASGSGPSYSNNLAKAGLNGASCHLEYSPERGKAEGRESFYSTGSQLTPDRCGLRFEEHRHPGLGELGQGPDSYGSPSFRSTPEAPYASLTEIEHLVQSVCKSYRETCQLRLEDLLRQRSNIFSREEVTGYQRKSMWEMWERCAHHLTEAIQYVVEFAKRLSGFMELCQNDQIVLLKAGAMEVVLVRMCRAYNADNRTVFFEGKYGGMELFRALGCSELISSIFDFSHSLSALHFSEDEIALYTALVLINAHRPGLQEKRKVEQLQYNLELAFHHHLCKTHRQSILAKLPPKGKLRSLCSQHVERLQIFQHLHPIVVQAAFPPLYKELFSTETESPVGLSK
Procedure: [formula] RORγt 5×RORE Assay in Jurkat Cells (Assay 2)
Compounds described herein were tested for RORγ inverse agonist activity in a cell-based, transcriptional activity assay. […] (Promega, Cat. # N1021) using KpnI and HindIII restriction sites. […] Tested compounds were added to the cells in the same media (final concentration of DMSO was 0.1% (v/v)), and the plates were incubated at 37° C./5% CO2 for 16-18 hrs. Luciferase activity in the conditioned supernatants was determined with NanoGlo® assay reagents (Promega, Cat. # N1130).

Sequence of recombinant RORγ Ligand Binding Domain (LBD) protein (P51449 269-508): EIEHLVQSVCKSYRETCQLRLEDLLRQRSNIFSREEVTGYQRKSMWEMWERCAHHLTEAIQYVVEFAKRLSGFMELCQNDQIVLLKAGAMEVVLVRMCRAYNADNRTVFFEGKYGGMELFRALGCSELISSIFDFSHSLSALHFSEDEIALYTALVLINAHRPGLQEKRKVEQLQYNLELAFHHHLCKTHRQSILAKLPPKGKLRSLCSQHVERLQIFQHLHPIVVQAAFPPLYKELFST

SMILES | Ki [1] | IC50 [2]
CCn1c(C[C@H]2CC[C@@H](C(F)(F)F)CC2)cc2cc(C(=O)N[C@@H](CO)c3ccc(S(=O)(=O)CC)cc3)ccc21 [IN-16.2, 1-ethyl-N-((R)-1-(4-(ethylsulfonyl)phenyl)-2-hydroxyethyl)-2-(((1s,4S)-4-(trifluoromethyl)cyclohexyl)methyl)-1H-indole-5-carboxamide] | < 100 nM | > 1000 nM
CCS(=O)(=O)c1ccc([C@@H](COC(N)=O)NC(=O)c2ccc3c(c2)nc(C[C@H]2CC[C@H](C(F)(F)F)CC2)n3C2CC2)cc1 [BE-67, (S)-2-(1-cyclopropyl-2-(((1r,4S)-4-(trifluoromethyl)cyclohexyl)methyl)-1H-benzo[d]imidazole-5-carboxamido)-2-(4-(ethylsulfonyl)phenyl)ethyl carbamate] | < 100 nM | < 100 nM
CCn1c(C[C@H]2CC[C@@H](C(F)(F)F)CC2)cc2cc(C(=O)NCc3ccc(S(=O)(=O)CC)cc3)ccc21 [IN-17.2, 1-ethyl-N-(4-(ethylsulfonyl)benzyl)-2-(((1s,4s)-4-(trifluoromethyl)cyclohexyl)methyl)-1H-indole-5-carboxamide] | < 100 nM | > 1000 nM
CCS(=O)(=O)c1ccc([C@H](COC(N)=O)NC(=O)c2ccc3c(c2)nc(C[C@H]2CC[C@H](C(F)(F)F)CC2)n3C2CC2)cc1 [BE-66, (R)-2-(1-cyclopropyl-2-(((1r,4R)-4-(trifluoromethyl)cyclohexyl)methyl)-1H-benzo[d]imidazole-5-carboxamido)-2-(4-(ethylsulfonyl)phenyl)ethyl carbamate] | < 100 nM | < 100 nM
CCS(=O)(=O)c1ccc([C@H](CO)NC(=O)c2ccc3c(c2)nc(C(=O)c2ccc(C(F)(F)F)cc2)n3C2CC2)cc1 [BE-61, (R)-1-cyclopropyl-N-(1-(4-(ethylsulfonyl)phenyl)-2-hydroxyethyl)-2-(4-(trifluoromethyl)benzoyl)-1H-benzo[d]imidazole-5-carboxamide] | < 100 nM | < 100 nM
CCn1c(C[C@H]2CC[C@@H](C(F)(F)F)CC2)cc2cc(C(=O)NCc3ccc(S(=O)(=O)CC)cn3)ccc21 [IN-15.2, 1-ethyl-N-((5-(ethylsulfonyl)pyridin-2-yl)methyl)-2-(((1s,4s)-4-(trifluoromethyl)cyclohexyl)methyl)-1H-indole-5-carboxamide] | < 100 nM | > 1000 nM

Source: US10829448B2, “Substituted benzoimidazoles as modulators of ROR-γ” (Vitae Pharmaceuticals, LLC, priority 2015, dated 2020)
